# Measurements published in US20080280815A1, “Lowering Serum Lipids” (Novo Nordisk A/S, priority 2000, published 2008).
# Columns and labels:
# [1] = system: Wistar rats subjected to neonatal monosodium glutamate treatment (MSG); experiment: Acute and subchronic anorectic effects, model of hypothalamic obesity (MSG rats); assay type: in vivo, rat
# Protocol: Solutions were always made fresh approximately 1 hour prior to use and stored at 4° C. in sterile tubes.
# [2] = system: male Zucker Diabetic Fatty fa/fa (ZDF) rat; experiment: Long-term treatment of male Zucker Diabetic Fatty fa/fa (ZDF) rats, model of Type 2 diabetes; assay type: in vivo; settings: for Free fatty acids / Total cholesterol: mean ± SEM
# Source text: The male Zucker Diabetic Fatty fa/fa (ZDF) rat is a model of Type 2 diabetes. The rats are insulin resistant but normoglycemic from birth and they develop diabetes from about week 7 to week 10 of age. During the transitional period, the animals go through a state of impaired glucose tolerance. Although the animals are hyperinsulinemic before diabetes onset and during the early stages of diabetes, they later lose glucose-stimulated insulin secretion and finally become almost completely insulinopenic.
# Animals were between 7 and 8 weeks old when dosing was initiated, and fed glucose levels were not different between the groups before dosing began. […] After 36 days of dosing, an oral glucose tolerance test was performed in the animals after an 11-hour fast. One g/kg of glucose was administered by oral gavage and subsequent measurements of blood glucose and plasma insulin were made.
# In addition to the effects on blood glucose and insulin, we also studied the effects of long-term treatment on lipid parameters. Thus, at the termination of the study, non-fasted plasma measurements of total cholesterol, free fatty acids were performed.
# normal Wistar rats = experiment: Acute and subchronic anorectic effects, normal Wistar rats; assay type: in vivo, rat; settings: lowered from 1.58±0.1, 100 μg/kg s.c. twice daily
# [3] = 100 μg/kg s.c. twice daily, normal and MSG rats not distinguished
# [4] = initial effect, normalised within few days of treatment
# [5] = 150 μg/kg s.c. bi-daily, non-fasted plasma at termination
# [6] = group B, 30 μg/kg s.c. bi-daily, non-fasted plasma at termination
# [7] = group C, 150 μg/kg s.c. bi-daily, non-fasted plasma at termination
substance,measurement,setting,value
"Arg^34, Lys^26(N^ε-(γ-Glu(N^α-hexadecanoyl)))-GLP-1(7-37) [GLP1]",body weight,[1]; [3],reduced
same,food intake,[1]; [3],inhibition
same,diuresis,[1]; [4],increases
same,water intake,[1]; [4],Initial decreases
same,plasma parameters of renal function,[1]; throughout the experiment,remained normal
same,"free fatty acids, group C compared to group A (vehicle)",[2]; [5],significant reduction
same,"total cholesterol, group C compared to group A (vehicle)",[2]; [5],significant reduction
same,blood glucose state during a normal 24-hour feeding schedule,"[2]; group B, 30 μg/kg s.c. bi-daily, after 10 days of dosing",hyperglycemic
same,Free fatty acids,[2]; [6],0.29 ± 0.04 mM
same,Total cholesterol,[2]; [6],2.9 ± 0.1 mM
same,blood glucose levels during a normal 24-hour feeding schedule vs vehicle- and low-dose-treated animals,"[2]; group C, 150 μg/kg s.c. bi-daily, after 10 days of dosing",significantly lower
same,blood glucose levels during a normal 24-hour feeding schedule,"[2]; group C, 150 μg/kg s.c. bi-daily, after 10 days of dosing, compared to initial measurements",unchanged
same,glycemic level in oral glucose tolerance test vs groups A and B,"[2]; group C, 150 μg/kg s.c. bi-daily, after 36 days of dosing, 11-hour fast, 1 g/kg glucose by oral gavage",significantly lower
same,Free fatty acids,[2]; [7],0.20 ± 0.02 mM
same,Total cholesterol,[2]; [7],2.2 ± 0.1 mM
same,plasma levels of triglycerides,normal Wistar rats,1.21 ± 0.3 mM
